Assay results as given in patent US9434763B2, “Derivatives of pyridinone as inhibitors for tissue transglutaminase” (ZEDIRA GMBH, priority 2012, dated 2016).

Experiments:
Assay type in all cases: cell-based
[1] = tested on: Huh 7 (human hepatome-cell line); assay: Cytotoxicity: proliferation, Cell Proliferation ELISA, BrdU, Huh 7; settings: Huh7 cells; inhibitors up to highest measured concentration of 1 mM (so in the source); cycloheximide 2.5 μg/ml, camptothecin 0.2 μg/ml
Procedure: (§1) Huh 7 (human hepatome-cell line) and CaCo2 (human colon carcinoma-cell line) were seeded to 96 well plates in Dulbecco's Modified Eagle's Medium (DMEM)/10% fetal calf serum (FCS) and cultivated. The method is known to the skilled person.
(§2) […] The determination of the proliferation was carried out using the Cell Proliferation ELISA, BrdU (Roche 11 647 229 001): 24 hours after incubation of the cells with the inhibitor BrdU was added. The colorimetric development of the test was made after further 48 hours according to manufacturer's information. The extinction was measured at 450 nm. For determination of the metabolic activity using the EZ4U-Assay (Biomedica B1-5000) the tetrazolium substrate was added to the cells 48 hours after addition of the inhibitor. The capacity for reaction of the cells was measured every hour over a period of 4 hours at 450 nm against a reference filter of 630 nm. DMEM without inhibitor was added as reference in both experiments, as positive control cycloheximide (2.5 μg/ml) and camptothecin (0.2 μg/ml).

[2] = tested on: CaCo2 (human colon carcinoma-cell line); assay: Cytotoxicity: metabolic activity, EZ4U-Assay, CaCo2; settings: CaCo2 cells; 48 hours after addition; inhibitors up to 1 mM (so in the source); cycloheximide 2.5 μg/ml, camptothecin 0.2 μg/ml
Procedure: as §1
After one hour the inhibitors A63 (ZED1227), A29 (ZED1098) and A61 (ZED1219) were added in the concentrations 0.1 μM to 1 μM. The determination of the proliferation was carried out using the Cell Proliferation ELISA, BrdU (Roche 11 647 229 001): 24 hours after incubation of the cells with the inhibitor BrdU was added. The colorimetric development of the test was made after further 48 hours according to manufacturer's information. The extinction was measured at 450 nm. For determination of the metabolic activity using the EZ4U-Assay (Biomedica B1-5000) the tetrazolium substrate was added to the cells 48 hours after addition of the inhibitor. The capacity for reaction of the cells was measured every hour over a period of 4 hours at 450 nm against a reference filter of 630 nm. DMEM without inhibitor was added as reference in both experiments, as positive control cycloheximide (2.5 μg/ml) and camptothecin (0.2 μg/ml).

[3] = tested on: Huh 7 (human hepatome-cell line); assay: Cytotoxicity: metabolic activity, EZ4U-Assay, Huh 7; settings: Huh7 cells; 48 hours after addition; inhibitors up to 1 mM (so in the source); cycloheximide 2.5 μg/ml, camptothecin 0.2 μg/ml
Procedure: as §1, §2

[4] = tested on: CaCo2 (human colon carcinoma-cell line); assay: Cytotoxicity: proliferation, Cell Proliferation ELISA, BrdU, CaCo2; settings: CaCo2 cells; inhibitors up to highest measured concentration of 1 mM (so in the source); cycloheximide 2.5 μg/ml, camptothecin 0.2 μg/ml
Procedure: as §1, §2

C[C@@H]1C[C@@H]([C@H](O)CC2CC(=O)NC(=O)C2)C(=O)[C@@H](C)C1 [cycloheximide, reference compound]
significant reduction: effect on proliferation (BrdU) [1] | effect on metabolic activity (EZ4U) [2] | effect on metabolic activity (EZ4U) [3] | effect on proliferation (BrdU) [4]
